Experiments:
Format in all cases: in vitro ADME
[1] = In vitro stability of compounds in rat serum; settings: for stability of compounds in rat serum: Table 2 data; for Stability in rat serum (% loss): after 60 min exposure to rat serum, 37° C., HPLC
Method: In general, compounds from the class of 7-acylamino-3-heteroarylthio-3-cephem carboxylic acids have higher chemical reactivity and lower stability towards chemical or enzymatic decomposition than most typical cephalosporins. […] Results shown in Table 2 represent percentage loss of the initial amount of cephalosporin compound upon 60 min incubation in rat serum.
Procedure for measuring degree of degradation of cephalosporin compounds in rat serum was as follows:
Fresh control rat serum (heparinized and stored frozen) is preincubated at 37° C. for 15 min in a shaking water bath. pH is measured using test strips. 25 μL of a 2 mg/mL solution cephalosporin compound (in water) of is then added to each matrix to make 1000 μL. Solutions were incubated at 37° C. 100 ul of solution was taken out at time=0, 15, 30, and 60 min post dose and added 200 μL 4% trichloroacetic acid, vortexed, and centrifuged for 10 min at 14,000 rpm in an Eppendorf microcentrifuge. 25 μL of each supernatant was injected onto HPLC. Experiment was repeated using 25 μL of a 0.2 mg/mL cephalosporin compound. Degradation is measured as the percentage of HPLC peak area at time t relative to peak area at time 0.
HPLC conditions: Beckman Ultrasphere C18 column. 5 u. 4.6 mm×25 cm. 1 mL/min of 95% 0.1 M ammonium acetate, pH 6, 5% ACN going to 75% buffer/organic over 20 min. UV monitored at 254 and 280 nm.

[2] = system: rat serum proteins; assay: Serum binding determination by ultrafiltration/HPLC; settings: by HPLC
Method: (§1) The more accurate measurement of binding of selected cephalosporin compounds was performed using HPLC as described below.
(§2) 1. Serum is placed in a shaking water bath preheated to 37±2° C. for 5 to 10 minutes to heat serum to 37° C. Serum pH is measured and recorded, while serum is 37° C. using pH paper. Measurements are taken twice, 3 minutes apart. If the pH is not 7.4±0.4 then the pH is adjusted by blowing 5% CO2/95% O2 over the serum. After blowing for several minutes, serum is heated to 37° C. and measurements are taken twice, 3 minutes apart using pH paper to determine the pH. Store at 4° C. The serum is stable for 7 days. Always check the pH before each use.
(§3) 2. Before any centrifugation, the centrifuge temperature must be adjusted to 25±2° C. Preheat the centrifuge by spinning for 45 minutes at the same speed to be used in the assay (1900 g) with two tubes of water in the rotor and the temperature set to 25° C. When the centrifuge stops immediately check the temperature of the tubes of water with a calibrated thermometer. The temperature of the tubes of water must be 25±2° C. […] Continue spinning and measuring the temperature and adjusting the setting until the temperature is 25±2° C.
(§4) 3. Prepare blank ultrafiltrate by pipetting blank pH 7.4 serum into an Amicon Centrifree Micropartition devices, centrifuge: fixed angle rotor, 1900 g, 25° C. for 20 minutes. Heat ultrafiltrate in a shaking water bath preheated to 37° C. Measure ultrafiltrate pH and adjust to the pH of the serum (7.4±0.2).
(§5) 4. Pipette 190 ul of blank ultrafiltrate into a set of labeled 1.7 mL polypropylene microfuge tubes for 3 of each level. Pipette 10 μL of the appropriate standard stock 50, 200, 1000 μg/mL to make standards 2.5, 10, and 50 μg/mL respectively. Vortex each tube well. One set of the standard samples are mixed 1:1 with 0.2 M acetic acid and injected onto the HPLC (MSTD). These samples are the membrane standards and will be used to compare to the other standards. Pipette 190 ul of ultrafiltrate and spike with 10 ul of whatever solution (e.g. water) the standards are prepared in to make the zero standard.
(§6) 5. Pipette 475 μL of blank heated pH 7.4 serum into a set of labeled 1.7 mL polypropylene microfuge tubes for 2 of each (Serum A and Serum B). Pipette 25 μL of the 1000 μg/mL standard stock into each tube, vortex each tube well to make serum standard 50 μg/mL. Remove 100 μL of serum and deproteinate with 200 μL 4% TCA while vortexing to make serum time 0 (serum 50, T0). Place serum tubes in a shaking water bath at 37° C. for 10 minutes. Pipet 100 μL of serum out and deproteinate with 200 μL 4% TCA, to make serum time 10 min (serum 50, T10). Pipet 200 ul serum standard 50 μg/mL into an ultrafiltration device, which is not treated with TCA, to determine free drug in samples (Rat Serum 50).
(§7) 6. Transfer serum and standard samples to labeled Amicon Centrifree Micropartition filters, and centrifuge: 1900 g, 25° C. for 10 minutes. The extracted serum samples (T0 and T10) are spun down and supernatant is loaded into HPLC vials.
(§8) 7. 100 μL of ultrafiltrate sample and 100 μL of 0.2 M acetic acid were mixed together to stabilize the compound in ultrafiltrate.
(§9) 8. Transfer entire stabilized ultrafiltrate solution to a labeled autoinjector HPLC vial cap with Teflon septa, and inject on HPLC.
(§10) Peak height or area is used in a weighted linear regression.

[3] = system: rhesus serum proteins; assay: as above; settings: by HPLC
Method: as §1, §2, §3, §4, §5, §6, §7, §8, §9, §10

[4] = system: human serum proteins; assay: as above; settings: by HPLC
Method: as §1, §2, §3, §4, §5, §6, §7, §8, §9, §10

For `NCCSCc1nc(N)sc1SC1=C(C(=O)O)N2C(=O)[C@@H](NC(=O)/C(=N\O)c3nc(N)sc3Cl)[C@H]2SC1` [Cmpd 3, (7R)-7-[(Z)-2-(2-amino-5-chlorothiazol-4-yl)-2-(hydroxyimino)acetamido]-3-[4-(2-aminoethylthiomethyl)-2-amino-1,3-thiazol-5-ylthio]-3-cephem-4-carboxylic acid], the “stability of compounds in rat serum” value [1] was “improved stability”, the “Stability in rat serum (% loss)” value [1] was 3% and the “Serum Binding rat (% of compound bound to serum)” value [2] was 56%. The “Serum Binding rhesus (% of compound bound to serum)” value [3] was 93% and the “Serum Binding human (% of compound bound to serum)” value [4] was 88%.
With `NCCSCc1nc(SCCN)sc1SC1=C(C(=O)O)N2C(=O)[C@@H](NC(=O)/C(=N\O)c3nc(N)sc3Cl)[C@H]2SC1` [Cmpd 11, (7R)-7-[(Z)-2-(2-amino-5-chlorothiazol-4-yl)-2-(hydroxyimino)acetamido]-3-[4-(2-aminoethylthiomethyl)-2-aminoethylthio-1,3-thiazol-5-ylthio]-3-cephem-4-carboxylic acid] the “Stability in rat serum (% loss)” value [1] was 47% and the “Serum Binding human (% of compound bound to serum)” value [4] was 83%.
With `NCCSCc1ncccc1SC1=C(C(=O)O)N2C(=O)[C@@H](NC(=O)/C(=N\O)c3nc(N)sc3Cl)[C@H]2SC1` [Cmpd 13, (7R)-7-[(Z)-2-(2-amino-5-chlorothiazol-4-yl)-2-(hydroxyimino)acetamido]-3-[2-(2-aminoethylthiomethyl)pyrid-3-ylthio]-3-cephem-4-carboxylic acid] the “stability of compounds in rat serum” value [1] was “improved stability”, the “Stability in rat serum (% loss)” value [1] was 9% and the “Serum Binding rat (% of compound bound to serum)” value [2] was 85%. For the same compound, the “Serum Binding human (% of compound bound to serum)” value [4] was 90%.
For `N=C(N)NCCSCc1ncccc1SC1=C(C(=O)O)N2C(=O)[C@@H](NC(=O)/C(=N\O)c3nsc(N)n3)[C@H]2SC1` [Cmpd 14, (7R)-7-[(Z)-2-(5-amino-1,2,4-thiadiazol-3-yl)-2-(hydroxyimino)acetamido]-3-[2-(2-guanidinoethylthiomethyl)pyrid-3-ylthio]-3-cephem-4-carboxylic acid], the “stability of compounds in rat serum” value [1] was “improved stability”, the “Stability in rat serum (% loss)” value [1] was 10% and the “Serum Binding human (% of compound bound to serum)” value [4] was 60%.
For `NCCSCc1ncccc1SC1=C(C(=O)O)N2C(=O)[C@@H](NC(=O)/C(=N\O)c3nsc(N)n3)[C@H]2SC1` [Cmpd 17, (7R)-7-[(Z)-2-(5-amino-1,2,4-thiadiazol-3-yl)-2-(hydroxyimino)acetamido]-3-[2-(2-aminoethylthiomethyl)pyrid-3-ylthio]-3-cephem-4-carboxylic acid], the “stability of compounds in rat serum” value [1] was “improved stability”, the “Stability in rat serum (% loss)” value [1] was 2% and the “Serum Binding rat (% of compound bound to serum)” value [2] was 74%. For the same compound, the “Serum Binding rhesus (% of compound bound to serum)” value [3] was 81% and the “Serum Binding human (% of compound bound to serum)” value [4] was 66%.
In the case of `NCCSCc1cnccc1SC1=C(C(=O)O)N2C(=O)[C@@H](NC(=O)/C(=N\O)c3nsc(N)n3)[C@H]2SC1` [Cmpd 18, (7R)-7-[(Z)-2-(5-amino-1,2,4-thiadiazol-3-yl)-2-(hydroxyimino)acetamido]-3-[3-(2-aminoethylthiomethyl)pyrid-4-ylthio]-3-cephem-4-carboxylic acid], the “Stability in rat serum (% loss)” value [1] is reported as 23%, the “Serum Binding rat (% of compound bound to serum)” value [2] is reported as 55% and the “Serum Binding rhesus (% of compound bound to serum)” value [3] is reported as 67%. For the same compound, the “Serum Binding human (% of compound bound to serum)” value [4] was 66%.
For `NCCSCc1cnccc1SC1=C(C(=O)O)N2C(=O)C(NC(=O)/C(=N\O)c3csc(N)n3)C2SC1` (stereo not shown) [Cmpd 19], the “Stability in rat serum (% loss)” value [1] was 26%, the “Serum Binding rat (% of compound bound to serum)” value [2] was 76% and the “Serum Binding rhesus (% of compound bound to serum)” value [3] was 83%. The “Serum Binding human (% of compound bound to serum)” value [4] was 68%.
With `NCCSCc1cnccc1SC1=C(C(=O)O)N2C(=O)[C@@H](NC(=O)/C(=N\O)c3nc(N)sc3Cl)[C@H]2SC1` [Cmpd 20, (7R)-7-[(Z)-2-(2-amino-5-chlorothiazol-4-yl)-2-(hydroxyimino)acetamido]-3-[3-(2-aminoethylthiomethyl)pyrid-4-ylthio]-3-cephem-4-carboxylic acid] the “Stability in rat serum (% loss)” value [1] was 70%, the “Serum Binding rat (% of compound bound to serum)” value [2] was 71% and the “Serum Binding rhesus (% of compound bound to serum)” value [3] was 77%. The “Serum Binding human (% of compound bound to serum)” value [4] was 84%.
In the case of `NCCSCc1ccncc1SC1=C(C(=O)O)N2C(=O)[C@@H](NC(=O)/C(=N\O)c3nc(N)sc3Cl)[C@H]2SC1` [Cmpd 21, (7R)-7-[(Z)-2-(2-amino-5-chlorothiazol-4-yl)-2-(hydroxyimino)acetamido]-3-[4-(2-aminoethylthiomethyl)pyrid-3-ylthio]-3-cephem-4-carboxylic acid], the “stability of compounds in rat serum” value [1] is reported as “improved stability”, the “Stability in rat serum (% loss)” value [1] is reported as 3% and the “Serum Binding rat (% of compound bound to serum)” value [2] is reported as 97%. For the same compound, the “Serum Binding rhesus (% of compound bound to serum)” value [3] was 97% and the “Serum Binding human (% of compound bound to serum)” value [4] was 90%.
For `NCCSCc1ncsc1SC1=C(C(=O)O)N2C(=O)[C@@H](NC(=O)/C(=N\O)c3cccc(N)n3)[C@H]2SC1` [Cmpd 23, (7R)-7-[(Z)-2-(2-aminopyrid-6-yl)-2-(hydroxyimino)acetamido]-3-[4-(2-aminoethylthiomethyl)-1,3-thiazol-5-ylthio]-3-cephem-4-carboxylic acid], the “stability of compounds in rat serum” value [1] was “improved stability”, the “Stability in rat serum (% loss)” value [1] was 19% and the “Serum Binding rat (% of compound bound to serum)” value [2] was 77%. The “Serum Binding rhesus (% of compound bound to serum)” value [3] was 93% and the “Serum Binding human (% of compound bound to serum)” value [4] was 94%.
In the case of `NCCSCc1cnccc1SC1=C(C(=O)O)N2C(=O)[C@@H](NC(=O)/C(=N\O)c3cccc(N)n3)[C@H]2SC1` [Cmpd 24, (7R)-7-[(Z)-2-(2-aminopyrid-6-yl)-2-(hydroxyimino)acetamido]-3-[3-(2-aminoethylthiomethyl)pyrid-4-ylthio]-3-cephem-4-carboxylic acid], the “Stability in rat serum (% loss)” value [1] is reported as 66%, the “Serum Binding rat (% of compound bound to serum)” value [2] is reported as 52% and the “Serum Binding human (% of compound bound to serum)” value [4] is reported as 88%.
In the case of `N=C(N)NCCSCc1cnccc1SC1=C(C(=O)O)N2C(=O)[C@@H](NC(=O)/C(=N\O)c3nsc(N)n3)[C@H]2SC1` [Cmpd 25, (7R)-7-[(Z)-2-(5-amino-1,2,4-thiadiazol-3-yl)-2-(hydroxyimino)acetamido]-3-[3-(2-guanidinoethylthiomethyl)pyrid-4-ylthio]-3-cephem-4-carboxylic acid], the “stability of compounds in rat serum” value [1] is reported as “improved stability”, the “Stability in rat serum (% loss)” value [1] is reported as 45% and the “Serum Binding rat (% of compound bound to serum)” value [2] is reported as 35%. The “Serum Binding rhesus (% of compound bound to serum)” value [3] was 55% and the “Serum Binding human (% of compound bound to serum)” value [4] was 47%.

From patent publication US6723716B1, “7-acylamino-3-heteroarylthio-3-cephem carboxylic acid antibiotics and prodrugs thereof” (Essential Therapeutics, Inc., priority 1999, dated 2004)
